# Data taken from patent US12440493B2, “Combination therapy for treating cancer comprising substituted piperazines” (Eli Lilly and Company, priority 2020, dated 2025).
# Values joined by “and” are separate entries in the source; they are usually repeats but may differ in a detail not shown here. Identical values can stand only once.
# How the values were obtained:
# 2-HG production = assay: Plasma 2-HG inhibition (LC-MS metabolite analysis in plasma of AML PDx model); type: in vivo, human; conditions: for % plasma 2-HG (treatment group value): vehicle 100%
# [1] = tested on: IDH1(R132H) primary human AML cells; assay: AML cell differentiation in blood (flow cytometry, % hCD33+hCD11b+ of hCD45+ cells), human AML PDx models in NSG mice; type: in vivo; conditions: for AML cell differentiation (% hCD33 + hCD11b+ (of hCD45+ cells)): QD, PO
# Experimental: Compounds and Formulation. For in vivo studies, each test article is prepared at an appropriate concentration with vehicle. […] Compound A is prepared fresh at the appropriate concentrations with vehicle every 7 days and stored at 4° C. between doses. […] Cytarabine is prepared fresh weekly by dilution with sterile saline from stock solution of Cytarabine (injection 20 mg/mL, (Pfizer injectables')). Azacitidine (Sigma, Lot #MKBR7212) is formulated in sterile water and is prepared fresh daily immediately before dosing. In vivo human AML PDx models. […] Two models are used in the studies: […] As needed, splenocytes from tumor-bearing mice are used to propagate and expand the models, as described. Each test article is prepared as described above at an appropriate concentration with vehicle to give animals the doses tested in this study at a dosing volume of 10 μL/gram body weight. Mice receiving Compound A (PO, QD) are treated at the indicated doses for the duration of the study. The combination agents are dosed as follows: […] Treated mice are assessed in comparison to vehicle treated and naïve (non-tumor bearing) control mice. Body weight is recorded twice per week. […] AML PDx model propagation. […] Spleens are processed and splenocytes isolated as described below. Two hundred μL per subject of the splenocyte prep is injected IV (intravenous, tail vein) into recipient NSG mice. […] Once engraftment is confirmed, the mice are monitored biweekly until ready to be put on study. […] Submandibular blood is collected. Spleen/Splenocyte Processing and Prep. After excision, a spleen is weighed, and […] is placed in a standard sterile 15 mL polypropylene conical tube containing PBS, and placed on ice. […] The spleen is placed in ice cold sterile PBS in a 15 mL collection tube. The spleen is removed from the collection tube and placed in a 100 micron 50 mL conical tube cell strainer (BD Falcon #352360). The spleen is processed by gentle rubbing of the spleen tissue against the surface of the cell strainer with the end of a 5 mL syringe plunger in a circular motion. The surface of the strainer is rinsed with 10 mL room temperature sterile DPBS (HyClone SH30028) 3 times during the process. […] The cell pellet is collected by centrifugation (300×g) and washed three times with 30 mL sterile DPBS. The cells are counted and resuspended in DPBS at the desired implant concentration. Bone Marrow Collection. […] Flow cytometry analysis of human white cells. Submandibular blood samples from in vivo studies are collected. Fluor-conjugated antibody stains are added according to the manufacturer's instructions (anti-human CD33-PE (clone WM53, BD Cat #555450), anti-human CD14-APC (clone MφpP9, BD Cat #340436), anti-human CD15-V450 (clone HI98, BD Cat #561584), anti-human CD117-BV421 (clone YB5.B8, BD Cat #562434), anti-human […]7 (clone ICRF44, BD Cat #557754), anti-human […]7 (clone HI30, BD Cat #557748), and anti-human CD3-FITC (clone SK7, BD Cat #340542)). The samples are incubated for 30 minutes at room temperature, protected from light. After the incubation, 1.5 mL 1×BD Lyse/Fix (37° C., (BD #558049)) is added to each sample and incubated for 12 minutes at room temperature. The tubes are centrifuged at 300×g for 7 minutes. BD Lyse/Fix solution is aspirated and the cell pellet washed with stain/wash buffer 3 times (1 wash step consisted of: pellet resuspended in 3 mL stain/wash buffer, centrifuged at 300×g, aspirated wash). Fixed cells are then resuspended in 300 to 400 μL stain/wash buffer. Samples are analyzed on a Becton Dickinson FACSVerse Flow cytometer (Cat #651155 Serial #Z6511550447) using standard flow cytometry principles and techniques. Samples are analyzed on the same day as they are stained and fixed. Population gating and data analysis of percent population are performed in the FACSuite software on the FACSVerse cytometer. Percent population values from the data analysis are plotted in Graphpad Prism or in JMP13. […]
# [2] = 3.3 mg/kg Compound A, QD, PO, Table 1D, each line one animal
# [3] = 3.3 mg/kg Compound A, QD, PO, Table 2D, each line one animal
# [4] = plasma, B: 1 mg/kg Compound A, QD, PO, one line per animal
# [5] = plasma, C: 10 mg/kg Compound A, one line per animal
smiles,measurement,setting,value
"C=CC(=O)N1CCN([C@@H](CC2CC2)c2ccc([C@H](C)Nc3ncc4c(n3)N(CC)C(=O)OC4)cc2)CC1 [Compound A, 7-[[(1S)-1-[4-[(1S)-2-cyclopropyl-1-(4-prop-2-enoylpiperazin-1-yl)ethyl]phenyl]ethyl]amino]-1-ethyl-4H-pyrimido[4,5-d][1,3]oxazin-2-one]",% Inhibition of 2-HG (plasma),2-HG production; [2],92.715% and 97.316% and 100.207% and 99.855% and 92.797% and 94.779%
same,Naive Subtracted 2-HG (plasma),2-HG production; [2],0.134 µM and 0.809 µM and 0.298 µM and -0.023 µM and 0.016 µM and 0.799 µM and 0.579 µM
same,Plasma 2-HG,2-HG production; [2],1.042 µM and 1.717 µM and 1.206 µM and 0.885 µM and 0.924 µM and 1.708 µM and 1.488 µM
same,% Inhibition of 2-HG (plasma),2-HG production; [3],118.011% and 98.032% and 112.937% and 127.909% and 122.77% and 118.689% and 111.758%
same,Naive Subtracted 2-HG (plasma),2-HG production; [3],-1.236 µM and 0.135 µM and -0.888 µM and -1.915 µM and -1.562 µM and -1.282 µM and -0.807 µM
same,Plasma 2-HG,2-HG production; [3],1.701 µM and 3.072 µM and 2.049 µM and 1.022 µM and 1.374 µM and 1.654 µM and 2.13 µM
same,inhibition at 10 mg/kg,"2-HG production; NSG mice, plasma, C: 10 mg/kg Compound A, one line per animal",84%
same,inhibition at 3.3 mg/kg,"2-HG production; NSG mice, po, 3.3 mg/kg Compound A, QD, Table 1D, each line one animal",98.8%
same,inhibition at 1 mg/kg,"2-HG production; NSG mice, po, plasma, B: 1 mg/kg Compound A, QD, PO, one line per animal",54.7%
same,% plasma 2-HG (treatment group value),2-HG production; group B: 1 mg Compound A,38%
same,% plasma 2-HG (treatment group value),"2-HG production; group B: Compound A (3.3 mg/kg), azacitidine study",−15%
same,% plasma 2-HG (treatment group value),"2-HG production; group B: Compound A (3.3 mg/kg), cytarabine study",3.4%
same,% plasma 2-HG (treatment group value),2-HG production; group C: 10 mg Compound A,9.2%
same,2-HG,2-HG production; [4],9.264 µM and 6.489 µM and 7.318 µM and 8.683 µM and 8.938 µM
same,% Inhibition of 2-HG,2-HG production; [4],73.015% and 67.532% and 58.504% and 56.818%
same,Naive Subtracted 2-HG,2-HG production; [4],6.855 µM and 4.08 µM and 4.909 µM and 6.274 µM and 6.529 µM
same,2-HG,2-HG production; [5],4.821 µM and 4.395 µM and 4.286 µM and 3.033 µM and 2.863 µM
same,% Inhibition of 2-HG,2-HG production; [5],86.867% and 87.584% and 95.874% and 97%
same,Naive Subtracted 2-HG,2-HG production; [5],2.412 µM and 1.986 µM and 1.877 µM and 0.624 µM and 0.454 µM
same,AML cell differentiation (% hCD33 + hCD11b+ (of hCD45+ cells)),"[1]; B: 1 mg/kg Compound A, treatment day −8 (before treatment), one animal",19.01% and 16.75%
same,AML cell differentiation (% hCD33 + hCD11b+ (of hCD45+ cells)),"[1]; Treatment day 2, 3.3 mg/kg Compound A, Table 2B, each value one animal, 3.3 mg/kg",14.12% and 16.05% and 13.27% and 10.34% and 11.59% and 13.32% and 14.01%
same,AML cell differentiation (% hCD33 + hCD11b+ (of hCD45+ cells)),"[1]; Treatment day 15, 3.3 mg/kg Compound A, Table 2B, each value one animal, 3.3 mg/kg",33.42% and 27.78% and 36.01% and 28.02% and 28.21% and 29.24% and 33.82%
same,AML cell differentiation (% hCD33 + hCD11b+ (of hCD45+ cells)),"[1]; Treatment day 18, 3.3 mg/kg Compound A, each value one animal, 3.3 mg/kg",23.96% and 27.78% and 22.27% and 22.38% and 22.41% and 29.38% and 24.62%
same,AML cell differentiation (% hCD33 + hCD11b+ (of hCD45+ cells)),"[1]; Treatment day 28, 3.3 mg/kg Compound A, Table 2B, each value one animal, 3.3 mg/kg",35.79% and 36.46% and 33.59% and 39.91% and 37.16% and 40.47%
same,AML cell differentiation (% hCD33 + hCD11b+ (of hCD45+ cells)),"[1]; Treatment day 34, 3.3 mg/kg Compound A, each value one animal, 3.3 mg/kg",30.68% and 27.59% and 29.94% and 25.81% and 29.79% and 34.39% and 29.26%
same,AML cell differentiation (% hCD33 + hCD11b+ (of hCD45+ cells)),"[1]; Treatment day 43, 3.3 mg/kg Compound A, Table 2B, each value one animal, 3.3 mg/kg",37.51% and 35.22% and 33.33% and 36.61% and 41.32% and 33.68% and 39.34%
same,AML cell differentiation (% hCD33 + hCD11b+ (of hCD45+ cells)),"[1]; Treatment day 47, 3.3 mg/kg Compound A, each value one animal, 3.3 mg/kg",37.61% and 35.31% and 38.58% and 39.61% and 31.81% and 41.02% and 35.79%
same,AML cell differentiation (% hCD33 + hCD11b+ (of hCD45+ cells)),"[1]; Treatment day 58, 3.3 mg/kg Compound A, Table 2B, each value one animal, 3.3 mg/kg",42.9% and 44.03% and 33.47% and 48.08% and 47.13% and 40.2% and 26.62%
same,AML cell differentiation (% hCD33 + hCD11b+ (of hCD45+ cells)),"[1]; Treatment day 61, 3.3 mg/kg Compound A, each value one animal, 3.3 mg/kg",37.61% and 40.23% and 40.06% and 33.82% and 32.55% and 43.95% and 44%
same,AML cell differentiation (% hCD33 + hCD11b+ (of hCD45+ cells)),"[1]; Treatment day 75, 3.3 mg/kg Compound A, each value one animal, 3.3 mg/kg",33.98% and 35.9% and 31.38% and 37.53% and 34.66% and 51.92%
same,AML cell differentiation (% hCD33 + hCD11b+ (of hCD45+ cells)),"[1]; Treatment day 77, 3.3 mg/kg Compound A, Table 2B, each value one animal, 3.3 mg/kg",56.29% and 46.83% and 42.98% and 48.3% and 51.69% and 48.56%
same,AML cell differentiation (% hCD33 + hCD11b+ (of hCD45+ cells)),"[1]; Treatment day 89, 3.3 mg/kg Compound A, each value one animal, 3.3 mg/kg",21.32% and 43.96% and 40.34% and 28.57% and 37.17% and 45.68%
same,AML cell differentiation (% hCD33 + hCD11b+ (of hCD45+ cells)),"[1]; Treatment day 98, 3.3 mg/kg Compound A, Table 2B, each value one animal, 3.3 mg/kg",44.09% and 47.66% and 33.67% and 36.45% and 33.6%
same,AML cell differentiation (% hCD33 + hCD11b+ (of hCD45+ cells)),"[1]; Treatment day −3, 3.3 mg/kg Compound A, each value one animal, 3.3 mg/kg",11.93% and 12% and 13.59% and 13.22% and 11.07% and 13.07%
same,AML cell differentiation (% hCD33 + hCD11b+ (of hCD45+ cells)),"[1]; Treatment day −19, 3.3 mg/kg Compound A, Table 2B, each value one animal, 3.3 mg/kg",1.45% and 2.19% and 0.38% and 2.21% and 0.64% and 0.34% and 0.68%
same,% AML cell differentiation (treatment group value),"[1]; day 43, group B: Compound A (3.3 mg/kg), azacitidine study, vehicle 15%",37%
same,% AML cell differentiation (treatment group value),"[1]; day 47, group B: Compound A (3.3 mg/kg), cytarabine study, vehicle 10%",37%
same,% AML cell differentiation (treatment group value),"[1]; day 50, group B: 1 mg Compound A, vehicle 28%",43%
same,% AML cell differentiation (treatment group value),"[1]; day 50, group C: 10 mg Compound A, vehicle 28%",79%
